Laboratory results: ChEMBL document CHEMBL1128203, “Synthesis and structure-activity relationships of acetylcholinesterase inhibitors: 1-benzyl-4-[(5,6-dimethoxy-1-oxoindan-2-yl)methyl]piperidine hydrochloride and related compounds” (J Med Chem, 1995)

The compounds below were run against T1, Acetylcholinesterase (Mus musculus, UniProt P21836).
T1 sequence (P21836 whole entry): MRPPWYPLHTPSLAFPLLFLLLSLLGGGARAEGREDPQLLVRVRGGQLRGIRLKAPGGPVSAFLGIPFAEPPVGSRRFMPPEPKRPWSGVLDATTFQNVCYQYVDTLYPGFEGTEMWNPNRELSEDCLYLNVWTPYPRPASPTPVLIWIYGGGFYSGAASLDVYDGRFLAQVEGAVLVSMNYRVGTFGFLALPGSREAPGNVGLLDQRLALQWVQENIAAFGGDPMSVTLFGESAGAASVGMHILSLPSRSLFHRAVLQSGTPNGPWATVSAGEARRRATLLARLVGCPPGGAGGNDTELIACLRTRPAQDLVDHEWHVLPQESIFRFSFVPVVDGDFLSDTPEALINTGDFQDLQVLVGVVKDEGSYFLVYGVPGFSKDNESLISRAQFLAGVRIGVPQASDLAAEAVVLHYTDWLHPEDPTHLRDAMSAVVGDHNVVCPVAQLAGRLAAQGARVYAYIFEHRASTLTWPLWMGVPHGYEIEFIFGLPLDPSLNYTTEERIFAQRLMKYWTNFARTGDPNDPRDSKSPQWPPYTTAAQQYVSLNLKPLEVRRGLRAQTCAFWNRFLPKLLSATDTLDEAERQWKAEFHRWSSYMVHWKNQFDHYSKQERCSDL
Description: Inhibitory activity against acetylcholinesterase

Compound | IC50 [nM]
COc1cc2c(cc1OC)C(=O)C(CCCC1CCN(Cc3ccccc3)CC1)C2 (stereo not drawn) | 1.5
COc1ccc(OC)c2c1CC(CC1CCN(Cc3ccccc3)CC1)C2=O (stereo not drawn) | 36
O=C1c2ccccc2CC1CCC1CCN(Cc2ccccc2)CC1 (stereo not drawn) | 230
COc1ccc2c(c1OC)C(=O)C(CC1CCN(Cc3ccccc3)CC1)C2 (stereo not drawn) | 85
COc1cc2c(cc1OC)C(=O)C(CC1CCN(Cc3cccc(C)c3)CC1)C2 (stereo not drawn) | 2
COc1cc2c(cc1OC)C(=O)/C(=C\C1CCN(Cc3ccccc3)CC1)C2 | 13
COc1ccc2c(c1OC)CC(CC1CCN(Cc3ccccc3)CC1)C2=O (stereo not drawn) | 20
CNC(=O)Oc1ccc2c(c1)[C@]1(C)CCN(C)[C@@H]1N2C [PHYSOSTIGMINE] | 0.68
